# Laboratory results reported in US20220402950A1, “SUBSTITUTED BENZIMIDAZOLES AS PAD4 INHIBITORS” (BRISTOL-MYERS SQUIBB COMPANY, priority 2018, published 2022).
# Read-outs that look alike come from different tables or passages of the source.
# Target: human PAD4 (hPAD4) (Homo sapiens, UniProt Q9UM07)
# Test: RFMS Human PAD4 Functional Assay
# Type: biochemical
# Conditions: 5 nM hPAD4, 250 μM BAEE
# In short: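 RapidFire ESI-MS quantification, normalised to a modified-citrulline internal standard, after phenyl glyoxal (final 4 mM) derivatisation of the TCA-quenched reaction. The enzyme (10 nM) sat 30 min with compound (up to 50 μM final) before 500 μM BAEE (as added) started a 90 min, 37 °C reaction. Buffer: HEPES pH 7.5, 50 μM calcium, 5 μM TPEN.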
# [1] = hPAD4 RFMS IC50, human PAD4, rapid-fire mass spectrum (RFMS) assay
# [2] = human PAD4, rapid-fire mass spectrum (RFMS) assay, read-out: hPAD4 RFMS IC50
# human PAD4 (hPAD4), sequence (Q9UM07 whole entry): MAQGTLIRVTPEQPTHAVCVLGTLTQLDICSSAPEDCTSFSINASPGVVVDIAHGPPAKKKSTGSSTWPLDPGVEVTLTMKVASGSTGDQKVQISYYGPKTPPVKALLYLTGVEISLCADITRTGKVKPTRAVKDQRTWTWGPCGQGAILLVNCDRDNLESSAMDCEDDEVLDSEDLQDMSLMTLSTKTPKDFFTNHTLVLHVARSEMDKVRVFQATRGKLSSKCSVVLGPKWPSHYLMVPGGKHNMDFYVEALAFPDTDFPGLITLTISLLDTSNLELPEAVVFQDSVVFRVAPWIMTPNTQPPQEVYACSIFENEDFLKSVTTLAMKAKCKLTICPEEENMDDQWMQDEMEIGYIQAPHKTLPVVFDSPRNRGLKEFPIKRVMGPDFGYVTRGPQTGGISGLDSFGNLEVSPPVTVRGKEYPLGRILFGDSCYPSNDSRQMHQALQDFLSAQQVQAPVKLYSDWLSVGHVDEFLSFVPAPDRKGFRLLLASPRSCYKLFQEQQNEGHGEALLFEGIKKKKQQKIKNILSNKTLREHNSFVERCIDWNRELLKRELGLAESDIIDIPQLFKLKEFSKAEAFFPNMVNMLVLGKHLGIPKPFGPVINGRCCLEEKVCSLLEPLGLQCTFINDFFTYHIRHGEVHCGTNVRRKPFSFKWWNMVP
Structure (SMILES),IC50 [1] [nM],IC50 [2] [nM]
"COc1cc(C(=O)N2C[C@H]3CC[C@@H]2[C@@H]3N)cc2nc(-c3cc4cccc(C5CCN(C(=O)CO)CC5)c4n3CC3CC3)n(C)c12 [Example 240, 1-(4-(2-(5-((1R,4R,7R)-7-amino-2-azabicyclo[2.2.1]heptane-2-carbonyl)-7-methoxy-1-methyl-1H-benzo[d]imidazol-2-yl)-1-(cyclopropylmethyl)-1H-indol-7-yl)piperidin-1-yl)-2-hydroxyethan-1-one]",15,
"COc1cc(C(=O)N2C[C@H]3CC[C@@H]2[C@@H]3N)cc2nc(-c3cc4cccc(C5CCN(C(=O)Nc6cccc(F)c6)CC5)c4n3CC3CC3)n(C)c12 [Example 242, 4-(2-(5-((1R,4R,7R)-7-amino-2-azabicyclo[2.2.1]heptane-2-carbonyl)-7-methoxy-1-methyl-1H-benzo[d]imidazol-2-yl)-1-(cyclopropylmethyl)-1H-indol-7-yl)-N-(3-fluorophenyl)piperidine-1-carboxamide]",30,
"COc1cc(C(=O)N2C[C@H]3CC[C@@H]2[C@@H]3N)cc2nc(-c3cc4cccc(C5CCN(C(=O)Nc6ccccc6F)CC5)c4n3CC3CC3)n(C)c12 [Example 243, 4-(2-(5-((1R,4R,7R)-7-amino-2-azabicyclo[2.2.1]heptane-2-carbonyl)-7-methoxy-1-methyl-1H-benzo[d]imidazol-2-yl)-1-(cyclopropylmethyl)-1H-indol-7-yl)-N-(2-fluorophenyl)piperidine-1-carboxamide]",8,
"COc1ccc(NC(=O)N2CCC(c3cccc4cc(-c5nc6cc(C(=O)N7C[C@H]8CC[C@@H]7[C@@H]8N)cc(OC)c6n5C)n(CC5CC5)c34)CC2)cc1 [Example 246, 4-(2-(5-((1R,4R,7R)-7-amino-2-azabicyclo[2.2.1]heptane-2-carbonyl)-7-methoxy-1-methyl-1H-benzo[d]imidazol-2-yl)-1-(cyclopropylmethyl)-1H-indol-7-yl)-N-(4-methoxyphenyl)piperi-dine-1-carboxamide]",6,
"COc1ccccc1NC(=O)N1CCC(c2cccc3cc(-c4nc5cc(C(=O)N6C[C@H]7CC[C@@H]6[C@@H]7N)cc(OC)c5n4C)n(CC4CC4)c23)CC1 [Example 247, 4-(2-(5-((1R,4R,7R)-7-amino-2-azabicyclo[2.2.1]heptane-2-carbonyl)-7-methoxy-1-methyl-1H-benzo[d]imidazol-2-yl)-1-(cyclopropylmethyl)-1H-indol-7-yl)-N-(2-methoxyphenyl)piperi-dine-1-carboxamide]",9,
"COc1cc(C(=O)N2C[C@H]3CC[C@@H]2[C@@H]3N)cc2nc(-c3cc4cccc(C5CCN(C(=O)NC6CC6)CC5)c4n3CC3CC3)n(C)c12 [Example 249, 4-(2-(5-((1R,4R,7R)-7-amino-2-azabicyclo[2.2.1]heptane-2-carbonyl)-7-methoxy-1-methyl-1H-benzo[d]imidazol-2-yl)-1-(cyclopropylmethyl)-1H-indol-7-yl)-N-cyclopropylpiperidine-1-carboxmaide]",8,
"COc1cc(C(=O)N2C[C@H]3CC[C@@H]2[C@@H]3N)cc2nc(-c3cc4cccc(C5CCN(C(N)=O)CC5)c4n3CC3CC3)n(C)c12 [Example 251, 4-(2-(5-((1R,4R,7R)-7-amino-2-azabicyclo[2.2.1]heptane-2-carbonyl)-7-methoxy-1-methyl-1H-benzo[d]imidazol-2-yl)-1-(cyclopropylmethyl)-1H-indol-7-yl)piperidine-1-carboxamide]",20,
COc1cc(C(=O)N2C[C@H]3CC[C@@H]2[C@@H]3N)cc2nc(-c3cc4cccc(-c5ccccc5)c4n3CC3CC3)n(C)c12 [compound 186],,299

# More lines, now with the values ahead:
IC50 [1] [nM],IC50 [2] [nM],Structure (SMILES)
28,,"COc1cc(C(=O)N2C[C@H]3CC[C@@H]2[C@@H]3N)cc2nc(-c3cc4cccc(C5CCN(C(=O)Nc6ccc(F)cc6)CC5)c4n3CC3CC3)n(C)c12 [Example 241, 4-(2-(5-((1R,4R,7R)-7-amino-2-azabicyclo[2.2.1]heptane-2-carbonyl)-7-methoxy-1-methyl-1H-benzo[d]imidazol-2-yl)-1-(cyclopropylmethyl)-1H-indol-7-yl)-N-(4-fluorophenyl)piperidine-1-carboxamide]"
13,,"COc1cc(C(=O)N2C[C@H]3CC[C@@H]2[C@@H]3N)cc2nc(-c3cc4cccc(C5CCN(C(=O)Nc6ccncc6)CC5)c4n3CC3CC3)n(C)c12 [Example 245, 4-(2-(5-((1R,4R,7R)-7-amino-2-azabicyclo[2.2.1]heptane-2-carbonyl)-7-methoxy-1-methyl-1H-benzo[d]imidazol-2-yl)-1-(cyclopropylmethyl)-1H-indol-7-yl)-N-(pyridin-4-yl)piperidine-1-carboxamide]"
20,,"COc1cccc(NC(=O)N2CCC(c3cccc4cc(-c5nc6cc(C(=O)N7C[C@H]8CC[C@@H]7[C@@H]8N)cc(OC)c6n5C)n(CC5CC5)c34)CC2)c1 [Example 248, 4-(2-(5-((1R,4R,7R)-7-amino-2-azabicyclo[2.2.1]heptane-2-carbonyl)-7-methoxy-1-methyl-1H-benzo[d]imidazol-2-yl)-1-(cyclopropylmethyl)-1H-indol-7-yl)-N-(3-methoxyphenyl)piperi-dine-1-carboxamide]"
8,,"CCNC(=O)N1CCC(c2cccc3cc(-c4nc5cc(C(=O)N6C[C@H]7CC[C@@H]6[C@@H]7N)cc(OC)c5n4C)n(CC4CC4)c23)CC1 [Example 250, 4-(2-(5-((1R,4R,7R)-7-amino-2-azabicyclo[2.2.1]heptane-2-carbonyl)-7-methoxy-1-methyl-1H-benzo[d]imidazol-2-yl)-1-(cyclopropylmethyl)-1H-indol-7-yl)-N-ethylpiperidine-1-carboxamide]"
58,,"COc1cc(C(=O)N2C[C@H]3CC[C@@H]2[C@@H]3N)cc2nc(-c3cc4cccc(C5CCN(C(=O)NC(C)C)CC5)c4n3CC3CC3)n(C)c12 [Example 252, 4-(2-(5-((1R,4R,7R)-7-amino-2-azabicyclo[2.2.1]heptane-2-carbonyl)-7-methoxy-1-methyl-1H-benzo[d]imidazol-2-yl)-1-(cyclopropylmethyl)-1H-indol-7-yl)-N-isopropylpiperidine-1-carboxamide]"
,191,"COc1cc(C(=O)N2C[C@H]3CC[C@@H]2[C@@H]3N)cc2nc(-c3cc4cccc(Nc5ccccc5CO)c4n3CC3CC3)n(C)c12 [compound 182, ((1R,4R,7R)-7-amino-2-azabicyclo[2.2.1]heptan-2-yl)(2-(1-(cyclopropylmethyl)-7-((2-(hydroxymethyl)phenyl)amino)-1H-indol-2 yl)-7-methoxy-1-methyl-1H-benzo[d]imidazol-5-yl)methanone]"
